The numbers were not newly measured in US20090087484A1, “Formulation and dosage form for increasing oral bioavailability of hydrophilic macromolecules” (priority 2007, published 2009), which cites them from elsewhere.

Read-outs that look alike come from different tables or passages of the source.

The conditions of series [1]: in vivo.

With pentosan polysulfate sodium [PPS], where the note is “after oral administration”, the “elimination half-life in urine” value is 4.8 h. The oral bioavailability result (in humans) was “approximately 3%”. Moreover, the elimination half-life (mean value, following IV injection) was 24 h.

As to `NC(=O)CC[C@@H]1NC(=O)[C@H](Cc2ccccc2)NC(=O)[C@H](Cc2ccc(O)cc2)NC(=O)CCSSC[C@@H](C(=O)N2CCC[C@H]2C(=O)N[C@H](CCCN=C(N)N)C(=O)NCC(N)=O)NC(=O)[C@H](CC(N)=O)NC1=O` [dDAVP, Desmopressin], the oral bioavailability entry in series [1] is “about 0.15%”.
